Source: publication PMC5448077, “Development of an orally available inhibitor of CLK1 for skipping a mutated dystrophin exon in Duchenne muscular dystrophy” (Scientific Reports, 2017)

Columns and labels:
Assay in all cases: biochemical
[1] = biological target: ALK(R1275Q) (Homo sapiens, UniProt Q9UM73, R1275Q)
How it was run: (§1)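 Human kinases phosphorylating kinase-specific synthetic peptides, assayed by mobility shift (MSA) or IMAP fluorescence polarization, in 20 mM HEPES pH 7.5, 0.01% Triton X-100, 2 mM DTT with substrate/ATP-metal. Reactions ran 1 or 5 h at room temperature; activity = P/(P + S) from product and substrate peak heights.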

[2] = biological target: T1, AMPKα1/β1/γ1 (Homo sapiens, UniProt Q13131)
T1 construct: gene PRKAA1
How it was run: as §1

[3] = biological target: T2, AurA (Homo sapiens, UniProt O14965)
T2 construct: gene AURKA
How it was run: as §1

[4] = biological target: T3, AurA/TPX2 (Homo sapiens, UniProt O14965)
T3 construct: gene AURKA
How it was run: as §1

[5] = biological target: T4, CK1γ3 (Homo sapiens, UniProt Q9Y6M4)
T4 construct: gene CSNK1G3
How it was run: as §1

[6] = biological target: DYRK1A (Homo sapiens, UniProt Q13627)
How it was run: as §1

[7] = biological target: EPHA1 (Homo sapiens, UniProt P21709)
How it was run: as §1

[8] = biological target: EPHA5 (Homo sapiens, UniProt P54756)
How it was run: as §1

[9] = biological target: EPHB2 (Homo sapiens, UniProt P29323)
How it was run: as §1

[10] = biological target: EPHB3 (Homo sapiens, UniProt P54753)
How it was run: as §1

[11] = biological target: T5, GSK3α (Homo sapiens, UniProt P49840)
T5 construct: gene GSK3A
How it was run: as §1

[12] = biological target: T6, HGK (Homo sapiens, UniProt O95819)
T6 construct: gene MAP4K4
How it was run: as §1

[13] = biological target: T7, IKKε (Homo sapiens, UniProt Q14164)
T7 construct: gene IKBKE
How it was run: as §1

[14] = biological target: T8, IRR (Homo sapiens, UniProt P14616)
T8 construct: gene INSRR
T8 sequence (P14616 whole entry): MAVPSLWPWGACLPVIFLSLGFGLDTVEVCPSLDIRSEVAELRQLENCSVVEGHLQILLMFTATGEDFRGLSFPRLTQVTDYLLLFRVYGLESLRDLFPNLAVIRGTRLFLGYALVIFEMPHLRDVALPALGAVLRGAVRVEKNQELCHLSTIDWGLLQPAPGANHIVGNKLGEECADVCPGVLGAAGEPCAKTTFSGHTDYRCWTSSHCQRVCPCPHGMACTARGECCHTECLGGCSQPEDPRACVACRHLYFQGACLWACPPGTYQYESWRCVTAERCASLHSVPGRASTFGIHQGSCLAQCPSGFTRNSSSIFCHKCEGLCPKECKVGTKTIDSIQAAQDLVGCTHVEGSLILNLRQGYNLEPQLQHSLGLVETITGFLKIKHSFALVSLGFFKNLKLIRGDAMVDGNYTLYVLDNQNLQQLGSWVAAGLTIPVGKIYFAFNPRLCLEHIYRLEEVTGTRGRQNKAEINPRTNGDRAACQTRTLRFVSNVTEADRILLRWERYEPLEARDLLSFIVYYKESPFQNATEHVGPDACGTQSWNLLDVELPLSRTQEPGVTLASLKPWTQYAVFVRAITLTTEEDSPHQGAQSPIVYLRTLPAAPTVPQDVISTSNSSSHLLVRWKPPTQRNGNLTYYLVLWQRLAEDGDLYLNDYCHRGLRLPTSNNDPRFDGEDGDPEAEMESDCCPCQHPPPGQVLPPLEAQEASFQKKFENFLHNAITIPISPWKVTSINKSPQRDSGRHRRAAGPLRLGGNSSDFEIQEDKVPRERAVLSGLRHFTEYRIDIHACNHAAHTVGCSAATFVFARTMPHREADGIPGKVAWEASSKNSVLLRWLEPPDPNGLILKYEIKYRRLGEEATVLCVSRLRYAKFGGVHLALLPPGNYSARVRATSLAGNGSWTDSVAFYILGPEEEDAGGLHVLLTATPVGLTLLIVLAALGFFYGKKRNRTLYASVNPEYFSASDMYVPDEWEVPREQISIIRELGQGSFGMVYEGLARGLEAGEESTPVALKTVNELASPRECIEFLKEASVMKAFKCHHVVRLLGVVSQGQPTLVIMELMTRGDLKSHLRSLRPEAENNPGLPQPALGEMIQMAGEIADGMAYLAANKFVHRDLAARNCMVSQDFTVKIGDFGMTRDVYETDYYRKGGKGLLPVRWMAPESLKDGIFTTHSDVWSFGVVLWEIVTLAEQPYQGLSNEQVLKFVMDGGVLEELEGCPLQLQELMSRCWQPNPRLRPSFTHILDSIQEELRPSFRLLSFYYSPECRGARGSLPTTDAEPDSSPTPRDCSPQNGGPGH
How it was run: as §1

[15] = biological target: ITK (Homo sapiens, UniProt Q08881)
ITK, sequence (Q08881 whole entry): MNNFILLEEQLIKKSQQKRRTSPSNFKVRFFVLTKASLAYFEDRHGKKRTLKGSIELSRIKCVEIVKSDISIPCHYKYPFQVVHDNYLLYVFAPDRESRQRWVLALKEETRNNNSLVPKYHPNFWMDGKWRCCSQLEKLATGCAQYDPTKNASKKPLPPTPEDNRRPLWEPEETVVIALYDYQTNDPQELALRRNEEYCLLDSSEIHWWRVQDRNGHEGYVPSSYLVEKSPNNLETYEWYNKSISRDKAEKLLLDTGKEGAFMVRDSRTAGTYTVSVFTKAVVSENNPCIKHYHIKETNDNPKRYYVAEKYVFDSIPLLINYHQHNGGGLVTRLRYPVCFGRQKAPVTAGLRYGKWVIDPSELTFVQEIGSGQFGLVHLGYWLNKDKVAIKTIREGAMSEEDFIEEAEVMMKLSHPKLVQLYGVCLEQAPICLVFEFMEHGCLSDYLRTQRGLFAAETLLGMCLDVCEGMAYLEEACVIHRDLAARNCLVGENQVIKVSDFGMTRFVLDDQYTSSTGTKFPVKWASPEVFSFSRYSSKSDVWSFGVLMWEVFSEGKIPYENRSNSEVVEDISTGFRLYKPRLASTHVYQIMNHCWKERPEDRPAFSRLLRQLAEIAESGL
How it was run: as §1

[16] = biological target: LCK (Homo sapiens, UniProt P06239)
How it was run: as §1

[17] = biological target: MET (Homo sapiens, UniProt P08581)
MET, sequence (P08581 whole entry): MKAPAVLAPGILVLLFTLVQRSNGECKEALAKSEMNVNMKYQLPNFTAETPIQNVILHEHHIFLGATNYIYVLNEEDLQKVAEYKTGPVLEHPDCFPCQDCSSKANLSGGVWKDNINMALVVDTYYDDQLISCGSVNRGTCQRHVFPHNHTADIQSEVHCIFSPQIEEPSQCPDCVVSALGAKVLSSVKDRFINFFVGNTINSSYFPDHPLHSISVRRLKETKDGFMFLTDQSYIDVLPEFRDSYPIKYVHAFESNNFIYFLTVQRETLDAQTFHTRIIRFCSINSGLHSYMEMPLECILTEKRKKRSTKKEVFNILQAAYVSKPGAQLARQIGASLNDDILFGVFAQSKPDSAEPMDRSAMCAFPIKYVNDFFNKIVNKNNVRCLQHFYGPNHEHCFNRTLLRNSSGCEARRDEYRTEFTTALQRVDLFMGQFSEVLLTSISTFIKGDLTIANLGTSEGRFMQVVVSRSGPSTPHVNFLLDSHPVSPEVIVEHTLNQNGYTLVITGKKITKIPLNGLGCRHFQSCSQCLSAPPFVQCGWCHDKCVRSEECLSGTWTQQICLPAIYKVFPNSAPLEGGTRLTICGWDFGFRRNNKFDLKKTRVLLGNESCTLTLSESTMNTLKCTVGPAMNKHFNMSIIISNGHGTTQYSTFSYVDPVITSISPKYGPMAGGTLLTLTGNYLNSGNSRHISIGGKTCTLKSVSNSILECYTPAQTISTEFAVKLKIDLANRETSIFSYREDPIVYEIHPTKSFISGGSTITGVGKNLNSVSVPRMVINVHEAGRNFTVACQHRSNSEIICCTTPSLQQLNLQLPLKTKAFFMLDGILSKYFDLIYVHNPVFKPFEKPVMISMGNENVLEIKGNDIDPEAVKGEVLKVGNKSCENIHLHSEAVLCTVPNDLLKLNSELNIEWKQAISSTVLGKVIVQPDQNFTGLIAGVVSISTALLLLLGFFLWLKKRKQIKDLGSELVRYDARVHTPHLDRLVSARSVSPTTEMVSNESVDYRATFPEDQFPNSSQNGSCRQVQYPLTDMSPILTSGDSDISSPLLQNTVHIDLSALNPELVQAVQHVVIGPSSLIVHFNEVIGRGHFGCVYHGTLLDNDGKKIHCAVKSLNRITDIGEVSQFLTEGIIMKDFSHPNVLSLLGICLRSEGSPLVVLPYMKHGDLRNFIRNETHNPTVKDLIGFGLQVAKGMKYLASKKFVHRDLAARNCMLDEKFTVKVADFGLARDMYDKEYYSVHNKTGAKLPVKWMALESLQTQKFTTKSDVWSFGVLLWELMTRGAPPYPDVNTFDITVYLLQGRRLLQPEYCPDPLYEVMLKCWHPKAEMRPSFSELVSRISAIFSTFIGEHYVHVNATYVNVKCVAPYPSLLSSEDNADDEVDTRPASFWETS
How it was run: as §1

[18] = biological target: MUSK (Homo sapiens, UniProt O15146)
How it was run: as §1

[19] = biological target: PBK (Homo sapiens, UniProt Q96KB5)
How it was run: as §1

[20] = biological target: T9, PDGFRα(T674I) (Homo sapiens, UniProt P16234, T674I)
T9 construct: gene PDGFRA
How it was run: as §1

[21] = biological target: T10, PKACα (Homo sapiens, UniProt P17612)
T10 construct: gene PRKACA
How it was run: as §1

[22] = biological target: T11, PKCε (Homo sapiens, UniProt Q02156)
T11 construct: gene PRKCE
How it was run: as §1

[23] = biological target: T12, PKD2 (Homo sapiens, UniProt Q9BZL6)
T12 construct: gene PRKD2
How it was run: as §1

[24] = biological target: T13, ROS (Homo sapiens, UniProt P08922)
T13 construct: gene ROS1
How it was run: as §1

[25] = biological target: SRC (Homo sapiens, UniProt P12931)
How it was run: as §1

[26] = biological target: TAOK2 (Homo sapiens, UniProt Q9UL54)
How it was run: as §1

[27] = biological target: TEC (Homo sapiens, UniProt P42680)
TEC, sequence (P42680 whole entry): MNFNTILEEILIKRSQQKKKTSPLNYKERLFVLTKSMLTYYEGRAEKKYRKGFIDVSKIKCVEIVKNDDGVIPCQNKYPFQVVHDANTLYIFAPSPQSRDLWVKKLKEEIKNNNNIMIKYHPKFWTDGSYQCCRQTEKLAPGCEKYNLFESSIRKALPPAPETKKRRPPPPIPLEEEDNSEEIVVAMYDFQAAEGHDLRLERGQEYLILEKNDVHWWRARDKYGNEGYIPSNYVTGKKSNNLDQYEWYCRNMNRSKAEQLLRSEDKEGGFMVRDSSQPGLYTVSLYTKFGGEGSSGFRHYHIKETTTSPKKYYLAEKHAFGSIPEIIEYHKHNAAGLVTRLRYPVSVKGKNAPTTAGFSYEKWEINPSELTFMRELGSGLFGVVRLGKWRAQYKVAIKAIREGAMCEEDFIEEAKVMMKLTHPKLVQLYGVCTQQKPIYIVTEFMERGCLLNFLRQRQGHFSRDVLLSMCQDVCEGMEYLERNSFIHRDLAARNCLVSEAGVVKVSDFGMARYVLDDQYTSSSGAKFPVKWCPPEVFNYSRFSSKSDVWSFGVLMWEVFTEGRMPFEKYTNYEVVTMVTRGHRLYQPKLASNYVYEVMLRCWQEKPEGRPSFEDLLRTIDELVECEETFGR
How it was run: as §1

[28] = biological target: T14, TIE2 (Homo sapiens, UniProt Q02763)
T14 construct: gene TEK
T14 sequence (Q02763 whole entry): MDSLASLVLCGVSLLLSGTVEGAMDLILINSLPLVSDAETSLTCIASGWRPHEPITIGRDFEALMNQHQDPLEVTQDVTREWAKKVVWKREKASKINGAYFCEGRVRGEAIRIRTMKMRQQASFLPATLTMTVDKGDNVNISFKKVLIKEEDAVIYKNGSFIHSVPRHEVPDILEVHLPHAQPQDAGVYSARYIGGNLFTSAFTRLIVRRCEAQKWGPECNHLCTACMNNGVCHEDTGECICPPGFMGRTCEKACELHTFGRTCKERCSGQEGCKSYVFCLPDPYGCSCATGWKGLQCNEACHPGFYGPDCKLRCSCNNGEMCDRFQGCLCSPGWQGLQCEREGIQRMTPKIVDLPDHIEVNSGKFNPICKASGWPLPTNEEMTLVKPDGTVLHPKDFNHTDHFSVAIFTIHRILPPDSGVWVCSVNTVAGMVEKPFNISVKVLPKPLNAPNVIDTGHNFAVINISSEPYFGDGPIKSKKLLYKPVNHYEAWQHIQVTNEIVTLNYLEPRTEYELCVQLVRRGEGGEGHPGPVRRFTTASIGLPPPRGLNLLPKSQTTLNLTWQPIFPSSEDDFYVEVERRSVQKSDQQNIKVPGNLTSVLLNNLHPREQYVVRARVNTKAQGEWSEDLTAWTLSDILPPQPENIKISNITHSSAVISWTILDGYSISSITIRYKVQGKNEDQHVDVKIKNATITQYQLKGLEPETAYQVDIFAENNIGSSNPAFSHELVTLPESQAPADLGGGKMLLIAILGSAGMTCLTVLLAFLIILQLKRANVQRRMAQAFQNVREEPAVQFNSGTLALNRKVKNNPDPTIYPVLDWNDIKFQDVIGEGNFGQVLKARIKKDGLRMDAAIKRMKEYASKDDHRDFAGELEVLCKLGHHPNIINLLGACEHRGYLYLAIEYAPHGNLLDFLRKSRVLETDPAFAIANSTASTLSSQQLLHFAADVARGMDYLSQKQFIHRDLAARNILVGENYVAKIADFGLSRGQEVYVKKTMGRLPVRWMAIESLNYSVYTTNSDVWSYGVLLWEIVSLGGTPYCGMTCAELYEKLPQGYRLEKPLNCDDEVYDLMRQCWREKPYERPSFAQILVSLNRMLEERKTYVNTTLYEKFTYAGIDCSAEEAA
How it was run: as §1

[29] = biological target: TSSK3 (Homo sapiens, UniProt Q96PN8)
How it was run: as §1

[30] = biological target: TXK (Homo sapiens, UniProt P42681)
How it was run: as §1

[31] = biological target: T15, p70S6Kβ (Homo sapiens, UniProt Q9UBS0)
T15 construct: gene RPS6KB2
How it was run: as §1

c1cc(-c2ccc3[nH]ncc3c2)ccn1 [TG693, 5-(4-pyridinyl)-1H-indazole] showed an inhibition at 1 µM [1] of -7.6%, an inhibition at 1 µM [2] of -6.5% and an inhibition at 1 µM [3] of -6.2%. For the same molecule, the inhibition at 1 µM [4] was 8.5%, the inhibition at 1 µM [5] was -7.7% and the inhibition at 1 µM [6] was 84.3%. It also gave an inhibition at 1 µM [7] of -2.8%, an inhibition at 1 µM [8] of -7.5% and an inhibition at 1 µM [9] of 0.3%. The inhibition at 1 µM [10] was -0.5%, the inhibition at 1 µM [11] was 12.6% and the inhibition at 1 µM [12] was 66.5%. It also gave an inhibition at 1 µM [13] of 6.1%, an inhibition at 1 µM [14] of 3% and an inhibition at 1 µM [15] of 2.8%. It also gave an inhibition at 1 µM [16] of -8.4%, an inhibition at 1 µM [17] of 13.2% and an inhibition at 1 µM [18] of -5%. The inhibition at 1 µM [19] was -3.5%, the inhibition at 1 µM [20] was 7.6% and the inhibition at 1 µM [21] was 9.5%. For the same molecule, the inhibition at 1 µM [22] was 12.3%, the inhibition at 1 µM [23] was 5.4% and the inhibition at 1 µM [24] was 8.1%. The inhibition at 1 µM [25] was 3.2%, the inhibition at 1 µM [26] was 2% and the inhibition at 1 µM [27] was -0.4%. It also gave an inhibition at 1 µM [28] of 9.7%, an inhibition at 1 µM [29] of 0.8% and an inhibition at 1 µM [30] of -1%. It also gave an inhibition at 1 µM [31] of 18.7%.
